{"source": "the supplement of paper PMC10307832", "assay_in_all_cases": "relative viability (nuclei count vs DMSO), 5 days (fraction); higher = more cells survive", "key": {"NCI-H2009": {"system": "NCI-H2009", "summary_of_the_method": "(§1)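 Medians of duplicate plates are given as relative viability. That measure is the nuclei count in treated wells divided by the count in vehicle wells. Counts were taken on 4× images of lung cancer cell lines in 1536-well plates, 5 days after pin-tool dosing the day after seeding with one drug alone or a fixed anchor-drug dose plus five library-drug doses (not always all listed) in √10 steps.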"}, "NCI-H647": {"system": "NCI-H647", "summary_of_the_method": "as §1"}, "NCI-H2126": {"system": "NCI-H2126", "summary_of_the_method": "as §1"}, "NCI-H2170": {"system": "NCI-H2170", "summary_of_the_method": "as §1"}, "ChaGo-K-1": {"system": "ChaGo-K-1", "summary_of_the_method": "as §1"}, "LK-2": {"system": "LK-2", "summary_of_the_method": "as §1"}, "NCI-H3122": {"system": "NCI-H3122", "summary_of_the_method": "as §1"}, "NCI-H596": {"system": "NCI-H596", "summary_of_the_method": "as §1"}, "NCI-H1734": {"system": "NCI-H1734", "summary_of_the_method": "as §1"}, "NCI-H441": {"system": "NCI-H441", "summary_of_the_method": "as §1"}, "HOP-62": {"system": "HOP-62", "summary_of_the_method": "as §1"}, "H3255": {"system": "H3255", "summary_of_the_method": "as §1"}, "CAL-12T": {"system": "CAL-12T", "summary_of_the_method": "as §1"}, "ABC-1": {"system": "ABC-1", "summary_of_the_method": "as §1"}, "201T": {"system": "201T", "summary_of_the_method": "as §1"}, "NCI-H1755": {"system": "NCI-H1755", "summary_of_the_method": "as §1"}, "NCI-H1651": {"system": "NCI-H1651", "summary_of_the_method": "as §1"}, "EMC-BAC-2": {"system": "EMC-BAC-2", "summary_of_the_method": "as §1"}, "LXF-289": {"system": "LXF-289", "summary_of_the_method": "as §1"}, "NCI-H1563": {"system": "NCI-H1563", "summary_of_the_method": "as §1"}, "PC-14": {"system": "PC-14", "summary_of_the_method": "as §1"}, "NCI-H322M": {"system": "NCI-H322M", "summary_of_the_method": "as §1"}, "NCI-H2087": {"system": "NCI-H2087", "summary_of_the_method": "as §1"}}, "data": [{"smiles": "CCCCCCCCCCCC1=C(O)C(=O)C=C(O)C1=O", "note": "[Embelin] + C[C@@H](Oc1cc(-c2cnn(C3CCNCC3)c2)cnc1N)c1c(Cl)ccc(F)c1Cl [Crizotinib] (partner 1 µM)", "values": [{"measurement": "relative viability", "setting": "NCI-H2009; first compound 0.08 µM", "result": 1.04}, {"measurement": "relative viability", "setting": "NCI-H2009; first compound 0.8 µM", "result": 1.12}, {"measurement": "relative viability", "setting": "NCI-H2009; first compound 2.53 µM", "result": 1.11}, {"measurement": "relative viability", "setting": "NCI-H2009; first compound 8 µM", "result": 1.06}, {"measurement": "relative viability", "setting": "NCI-H647; first compound 0.08 µM", "result": 1.44}, {"measurement": "relative viability", "setting": "NCI-H647; first compound 0.8 µM", "result": 1.08}, {"measurement": "relative viability", "setting": "NCI-H647; first compound 2.53 µM", "result": 1.48}, {"measurement": "relative viability", "setting": "NCI-H647; first compound 8 µM", "result": 1.17}, {"measurement": "relative viability", "setting": "NCI-H2126; first compound 0.08 µM", "result": 1.04}, {"measurement": "relative viability", "setting": "NCI-H2126; first compound 0.8 µM", "result": 1.05}, {"measurement": "relative viability", "setting": "NCI-H2126; first compound 2.53 µM", "result": 1.19}, {"measurement": "relative viability", "setting": "NCI-H2126; first compound 8 µM", "result": 1.04}, {"measurement": "relative viability", "setting": "NCI-H2170; first compound 0.08 µM", "result": 1.22}, {"measurement": "relative viability", "setting": "NCI-H2170; first compound 0.8 µM", "result": 1.18}, {"measurement": "relative viability", "setting": "NCI-H2170; first compound 2.53 µM", "result": 1.4}, {"measurement": "relative viability", "setting": "NCI-H2170; first compound 8 µM", "result": 1.36}, {"measurement": "relative viability", "setting": "ChaGo-K-1; first compound 0.08 µM", "result": 1.13}, {"measurement": "relative viability", "setting": "ChaGo-K-1; first compound 0.8 µM", "result": 1.22}, {"measurement": "relative viability", "setting": "ChaGo-K-1; first compound 2.53 µM", "result": 1.32}, {"measurement": "relative viability", "setting": "ChaGo-K-1; first compound 8 µM", "result": 1.24}, {"measurement": "relative viability", "setting": "LK-2; first compound 0.08 µM", "result": 0.227}, {"measurement": "relative viability", "setting": "LK-2; first compound 0.8 µM", "result": 0.316}, {"measurement": "relative viability", "setting": "LK-2; first compound 2.53 µM", "result": 0.229}, {"measurement": "relative viability", "setting": "LK-2; first compound 8 µM", "result": 0.208}, {"measurement": "relative viability", "setting": "NCI-H3122; first compound 0.08 µM", "result": 0.296}, {"measurement": "relative viability", "setting": "NCI-H3122; first compound 0.8 µM", "result": 0.293}, {"measurement": "relative viability", "setting": "NCI-H3122; first compound 2.53 µM", "result": 0.273}, {"measurement": "relative viability", "setting": "NCI-H3122; first compound 8 µM", "result": 0.282}, {"measurement": "relative viability", "setting": "NCI-H596; first compound 0.08 µM", "result": 1.06}, {"measurement": "relative viability", "setting": "NCI-H596; first compound 0.8 µM", "result": 1.62}, {"measurement": "relative viability", "setting": "NCI-H596; first compound 2.53 µM", "result": 1.2}, {"measurement": "relative viability", "setting": "NCI-H596; first compound 8 µM", "result": 1.01}, {"measurement": "relative viability", "setting": "NCI-H1734; first compound 0.08 µM", "result": 0.71}, {"measurement": "relative viability", "setting": "NCI-H1734; first compound 0.8 µM", "result": 0.825}, {"measurement": "relative viability", "setting": "NCI-H1734; first compound 2.53 µM", "result": 0.693}, {"measurement": "relative viability", "setting": "NCI-H1734; first compound 8 µM", "result": 0.747}, {"measurement": "relative viability", "setting": "NCI-H441; first compound 0.08 µM", "result": 0.749}, {"measurement": "relative viability", "setting": "NCI-H441; first compound 0.8 µM", "result": 0.971}, {"measurement": "relative viability", "setting": "NCI-H441; first compound 2.53 µM", "result": 0.788}, {"measurement": "relative viability", "setting": "NCI-H441; first compound 8 µM", "result": 0.901}, {"measurement": "relative viability", "setting": "HOP-62; first compound 0.08 µM", "result": 0.957}, {"measurement": "relative viability", "setting": "HOP-62; first compound 0.8 µM", "result": 0.926}, {"measurement": "relative viability", "setting": "HOP-62; first compound 2.53 µM", "result": 0.857}, {"measurement": "relative viability", "setting": "HOP-62; first compound 8 µM", "result": 0.82}, {"measurement": "relative viability", "setting": "H3255; first compound 0.08 µM", "result": 0.86}, {"measurement": "relative viability", "setting": "H3255; first compound 0.8 µM", "result": 0.979}, {"measurement": "relative viability", "setting": "H3255; first compound 2.53 µM", "result": 0.875}, {"measurement": "relative viability", "setting": "H3255; first compound 8 µM", "result": 1.03}, {"measurement": "relative viability", "setting": "CAL-12T; first compound 0.08 µM", "result": 0.615}, {"measurement": "relative viability", "setting": "CAL-12T; first compound 0.8 µM", "result": 0.785}, {"measurement": "relative viability", "setting": "CAL-12T; first compound 2.53 µM", "result": 0.724}, {"measurement": "relative viability", "setting": "CAL-12T; first compound 8 µM", "result": 0.801}, {"measurement": "relative viability", "setting": "ABC-1; first compound 0.08 µM", "result": 0.896}, {"measurement": "relative viability", "setting": "ABC-1; first compound 0.8 µM", "result": 1.26}, {"measurement": "relative viability", "setting": "ABC-1; first compound 2.53 µM", "result": 1.7}, {"measurement": "relative viability", "setting": "ABC-1; first compound 8 µM", "result": 1.21}, {"measurement": "relative viability", "setting": "201T; first compound 0.08 µM", "result": 1.02}, {"measurement": "relative viability", "setting": "201T; first compound 0.8 µM", "result": 1.07}, {"measurement": "relative viability", "setting": "201T; first compound 2.53 µM", "result": 1.04}, {"measurement": "relative viability", "setting": "201T; first compound 8 µM", "result": 1.06}, {"measurement": "relative viability", "setting": "NCI-H1755; first compound 0.08 µM", "result": 0.829}, {"measurement": "relative viability", "setting": "NCI-H1755; first compound 0.8 µM", "result": 0.877}, {"measurement": "relative viability", "setting": "NCI-H1755; first compound 2.53 µM", "result": 0.921}, {"measurement": "relative viability", "setting": "NCI-H1755; first compound 8 µM", "result": 0.871}, {"measurement": "relative viability", "setting": "NCI-H1651; first compound 0.08 µM", "result": 0.855}, {"measurement": "relative viability", "setting": "NCI-H1651; first compound 0.8 µM", "result": 0.843}, {"measurement": "relative viability", "setting": "NCI-H1651; first compound 2.53 µM", "result": 0.988}, {"measurement": "relative viability", "setting": "NCI-H1651; first compound 8 µM", "result": 0.837}, {"measurement": "relative viability", "setting": "EMC-BAC-2; first compound 0.08 µM", "result": 0.747}, {"measurement": "relative viability", "setting": "EMC-BAC-2; first compound 0.8 µM", "result": 0.831}, {"measurement": "relative viability", "setting": "EMC-BAC-2; first compound 2.53 µM", "result": 0.87}, {"measurement": "relative viability", "setting": "EMC-BAC-2; first compound 8 µM", "result": 0.764}, {"measurement": "relative viability", "setting": "LXF-289; first compound 0.08 µM", "result": 0.835}, {"measurement": "relative viability", "setting": "LXF-289; first compound 0.8 µM", "result": 0.818}, {"measurement": "relative viability", "setting": "LXF-289; first compound 2.53 µM", "result": 0.884}, {"measurement": "relative viability", "setting": "LXF-289; first compound 8 µM", "result": 0.896}, {"measurement": "relative viability", "setting": "NCI-H1563; first compound 0.08 µM", "result": 0.8}, {"measurement": "relative viability", "setting": "NCI-H1563; first compound 0.8 µM", "result": 0.837}, {"measurement": "relative viability", "setting": "NCI-H1563; first compound 2.53 µM", "result": 0.785}, {"measurement": "relative viability", "setting": "NCI-H1563; first compound 8 µM", "result": 0.899}, {"measurement": "relative viability", "setting": "PC-14; first compound 0.08 µM", "result": 0.916}, {"measurement": "relative viability", "setting": "PC-14; first compound 0.8 µM", "result": 0.845}, {"measurement": "relative viability", "setting": "PC-14; first compound 2.53 µM", "result": 0.921}, {"measurement": "relative viability", "setting": "PC-14; first compound 8 µM", "result": 0.891}, {"measurement": "relative viability", "setting": "NCI-H322M; first compound 0.08 µM", "result": 0.901}, {"measurement": "relative viability", "setting": "NCI-H322M; first compound 0.8 µM", "result": 1.22}, {"measurement": "relative viability", "setting": "NCI-H322M; first compound 2.53 µM", "result": 1.07}, {"measurement": "relative viability", "setting": "NCI-H322M; first compound 8 µM", "result": 1.16}, {"measurement": "relative viability", "setting": "NCI-H2087; first compound 0.08 µM", "result": 0.886}, {"measurement": "relative viability", "setting": "NCI-H2087; first compound 0.8 µM", "result": 0.899}, {"measurement": "relative viability", "setting": "NCI-H2087; first compound 2.53 µM", "result": 0.766}, {"measurement": "relative viability", "setting": "NCI-H2087; first compound 8 µM", "result": 0.937}]}]}
